Test results reported in patent US10786468B2, “Deacetylnemorone abietane diterpenoids for use in cancer treatment” (University of South Carolina, priority 2017, dated 2020).

Key:
[1] = test system: MDA-MB-231 breast cancer cells; assay: In vitro invasion assay (cell-free gap); type: cell-based, human
Description: Cell migration of MDA-MB-231 breast cancer cells was assessed through making a cell-free gap with a Culture Insert 2 well 24 (Ibidi), consisting of two wells that were separated by a wall. A total of 70 μl of cell suspension comprising of 35×10^3 cells was added to each well. Cells were given 24 hours to attach and reach confluency. Culture inserts were then removed and cell debris was washed with PBS. Fresh culture media supplemented with different concentration of the compound of interest was added to the wells and the cells were incubated at 37° C. and 5% CO2 for 26 hours. Images were taken 0, 6, 20, and 26 hours after compound addition using a phase contrast Nikon Eclipse Ti-E inverted microscope. Quantification of invasion was performed by measuring the gap distance for three repetitions and using the following formula,
[formula] where Wn is the width of gap after incubation, and W0 is the initial width right after forming the gap. Tube Formation Assay

[2] = test system: SKMEL5 melanoma cells; assay: Cell cycle analysis (PI staining, flow cytometry); type: cell-based
Description: The effect of the deacetylnemorone on the cell cycle of SKMEL5 melanoma cells was determined using a PI staining assay. SKMEL5 cells were maintained in RPMI 1640 media supplemented with 10% FBS and 2 mM L-glutamine and incubated at 37° C. and 5% CO2. The cells were seeded in 6 well plates at a density of 300,000 cells per well. After 24 hours, the media was removed and replaced with either fresh media (control) or with media supplemented with 17.3 μM of the deacetylnemorone of FIG. 1. The cells were incubated with this treatment for 72 hours total. At 6, 12, 24, 48, and 72 hours, the cells from two wells each of the control of the treated group were trypsinized, collected in centrifuge tubes, and centrifuged at 2500 rpm for 5 minutes. The supernatant was removed, and the pellet was washed with PBS and centrifuged 2 times. The pellet was then suspended in 500 μL PBS and added 3 mL of 70% ethanol dropwise while vortexing. This mixture was then incubated at 4° C. for 24 hours. Next, the mixture was centrifuged, the supernatant was removed and the pellet was suspended in PBS and stored at 4° C. until all the samples were collected. […]

[3] = test system: melanoma cell lines; assay: NCI-60 one-dose screen, melanoma cell lines; type: cell-based; details: 10 μM, 48 hours; in 6 out of 9 melanoma cell lines
Description: (§1) One dose cytotoxicity screening was performed by the NCI-60 screening program of the National Institutes of Health (NIH), which is known in the art and available from the NIH. The NCI-60 panel is a collection of cancer cell lines, from various diverse tumors, which was developed in the 1980s by the National Cancer Institute to aid screening efforts for cytotoxic or cytostatic compounds.
(§2) In these screens 59 cell lines were utilized to determine the cytotoxic effect of the deacetylnemorone. […]
(§3) A control for each cell type was also simultaneously created, which was treated with 100 μL of culture media without deacetylnemorone. […] The bound stain was then dissolved in 10 mM trizma base and the absorbance was read using an automated plate reader at 515 nm.
(§4) Suspension cells were treated in the same fashion with the exception that the cells were fixed once they had settled at the bottom of the wells using 50 μL of 80% TCA. The absorbance of each well was then converted to growth percent using equation 1 (below) where Ti is the average absorbance of the samples treated with a certain concentration of the compound of this invention, Tz represents the average absorbance of the samples fixed at the time the compound of interest was added to the experimental groups, and C is the average absorbance of the media treated control. […]

[4] = test system: 59 cell lines of the NCI-60 panel; assay: NCI-60 one-dose cytotoxicity screen, 59 cell lines; type: cell-based; details: 10 μM
Description: as §1, §2, §3, §4

[5] = test system: HCT 116/200 (FdUrd resistant subclone of HCT 116) cells; assay: MTS assay, HCT 116/200; type: cell-based
Excerpt: (§5) The human cell lines used for MTS assay screening included MG-63 (osteosarcoma), SK-OV-3 (ovarian adenocarcinoma), MDA-MB-231 (breast adenocarcinoma derived from a metastatic site), HCT 116 (colorectal carcinoma), HCT 116/200 (an FdUrd resistant subclone of HCT 116 cells), A2780ADR (a doxorubicin resistant subclone of the ovarian carcinoma A2780), and HUVEC (normal human umbilical vein endothelial cells). All cells were stored in liquid nitrogen until use. MG-63, SK-OV-3, MDA-MB-231, and HCT 116 cell lines were all obtained from ATCC. A2780ADR cells were obtained from Sigma-Aldrich. HCT 116/200 cells were obtained from Dr. Franklin G. Berger from the Center for Colon Cancer Research. HUVEC cells were obtained from Lonza. MG-63 cells were maintained in MEM medium (Corning) supplemented with 10% Fetal Bovine Essence (VWR) and 1% penicillin/streptomycin solution (Corning). […]
(§6) Cells were first grown to approximately 80% confluency within […] tissue culture flasks (VWR). […] Cells were counted using a hemocytometer and their viability was confirmed using trypan blue (Gibco). […]
(§7) After seeding, the cells were incubated for 24 hours at 37° C. and 5% CO2 to allow for cell attachment and renewal of the exponential growth phase. […] The cells were incubated for 2 hours, and the absorbance of each well at 490 nm was measured using a Spectramax 190 microplate reader.

[6] = test system: SK-OV-3 (ovarian adenocarcinoma) cells; assay: MTS assay, SK-OV-3; type: cell-based; details: SK-OV-3, 48 and 72 hours of exposure, FIG. 10
Excerpt: as §5, §6, §7

[7] = test system: HCT 116 (colorectal carcinoma) cells; assay: MTS assay, HCT 116; type: cell-based
Excerpt: as §5, §6, §7

[8] = test system: HUVEC endothelial cells; assay: Tube formation assay on growth factor reduced Matrigel; type: cell-based, human; details: 8 hours of incubation
Description: Growth factor reduced BD Matrigel (Corning), stored long-term at −20° C., was thawed on ice overnight in a 4° C. refrigerator prior to use. The following day, 50 μL of the thawed Matrigel was added to each well of a pre-chilled 96-well plate and incubated at 37° C. and 5% CO2 for approximately 30 minutes to allow the matrix to form a gel. Next, 100 μL of a cell suspension containing 20,000 HUVEC cells in cell culture media with various concentrations of deacetylnemorone was added to each well. The control consisted of HUVEC cells suspended in endothelial growth media alone. After 8 hours of incubation at 37° C. and 5% CO2, the number of tubes formed between the endothelial cells were quantified using an inverted microscope (Invitrogen EVOS FL Auto at 4× magnification).

[9] = test system: MDA-MB-231 (breast adenocarcinoma) cells; assay: MTS assay, MDA-MB-231; type: cell-based
Excerpt: as §5, §6, §7

[10] = test system: MG-63 (osteosarcoma) cells; assay: MTS assay, MG-63; type: cell-based; details: MG-63, 48 and 72 hours of exposure, FIG. 9
Excerpt: as §5, §6, §7

[11] = test system: melanoma line SK-MEL-5; assay: NCI-60 one-dose screen, SK-MEL-5; type: cell-based; details: 10 μM, 48 hours
Description: as §1, §2, §3, §4

[12] = test system: A2780ADR (doxorubicin resistant subclone of ovarian carcinoma A2780) cells; assay: MTS assay, A2780ADR; type: cell-based; details: 48 and 72 hours of exposure, FIG. 14
Excerpt: as §5, §6, §7

## deacetylnemorone
[1]; 1 μg/mL, after 26 hours
  invasion of breast cancer cells: significantly inhibited
[1]; 10 μg/mL, after 26 hours
  invasion of breast cancer cells: significantly inhibited
[1]; after 20 hours of incubation
  invasion of breast cancer cells: significantly inhibited
[2]; SKMEL5, after 24 hours, 17.3 μM (method) / 15 μM (figure legend)
  percent of cells in S phase: increase in the percent of cells in S phase
[2]; SKMEL5, up to 72 hours
  sub-G1 population: low sub-G1 population
[3]
  growth inhibition of melanoma cell lines: more than 70%
[4]; 48 hours, 59 cell lines screened
  number of cell lines whose growth was inhibited: 55 of the 59
[4]; after 48 hours
  average inhibition of percent growth across all 59 cell lines: 47%
[5]; HCT 116/200, 48 and 72 hours of exposure, FIG. 13
  cytotoxicity (percent viability, MTS): significant cytotoxic properties
[5]; HCT 116/200, 48 hour exposure, combination with FdUrd, FIG. 16 and 17
  cytotoxic effect in combination with FdUrd (percent viability, cell number): dose dependent, synergistic cytotoxic effect
[6]
  cytotoxicity (percent viability, MTS): significant cytotoxic properties
[7]; HCT-116, 48 and 72 hours of exposure, FIG. 12
  cytotoxicity (percent viability, MTS): significant cytotoxic properties
[7]; colon cancer
  lowest concentration at which cell death was indicated (MTS): 10 µg/mL
[8]; 0.1 μg/mL
  tube formation between HUVEC cells: inhibit tube formation
[8]; 10 μg/mL
  tube formation between HUVEC cells: inhibit tube formation
[9]; MDA-MB-231, 48 and 72 hours of exposure, FIG. 11
  cytotoxicity (percent viability, MTS): significant cytotoxic properties
[9]; breast cancer
  lowest concentration at which cell death was indicated (MTS): 10 µg/mL
[10]
  cytotoxicity (percent viability, MTS): significant cytotoxic properties
[11]
  percent growth: negative percent growth
[12]
  cytotoxicity (percent viability, MTS): significant cytotoxic properties
